We go through 17 molecules from PMC7397144, “Alkyl and Aryl Derivatives Based on p-Coumaric Acid Modification and Inhibitory Action against Leishmania braziliensis and Plasmodium falciparum” (Molecules, 2020).

The subject of series [1] is Leishmania braziliensis amastigotes. Nature of the series: In vitro antileishmanial activity, intracellular amastigotes (EGFP, flow cytometry). Conditions: intracellular amastigotes in U-937 cells, 72 h, mean ± SD. It counts as cell-based. The method, then: The activities of the derivatives in L. braziliensis intracellular amastigotes, transfected with the green fluorescent protein gene (MHOM/CO/88/UA301-EGFP) were evaluated. Initially, human U-937 cells at a density of 3 × 10^5 cells/mL in RPMI 1640 and 0.1 μg/mL PMA (phorbol-12-myristate-13-acetate) were dispensed in a 24-well microplate and incubated at 37 °C, and 5% CO2. At 72 h of incubation, the cells were infected with growing (stationary phase) promastigotes; 15 parasites per cell. The plates were incubated at 34 °C and 5% CO2 for 3 h and the cells then washed twice with phosphate buffer solution (PBS) to eliminate non-internalized parasites. Fresh RPMI-1640 was added to each well (1 mL) and the plates were incubated again to complete the infection. […] The cells were then removed from the bottom plate with a trypsin/EDTA solution (250 mg), and centrifuged at 1100 rpm for 10 min at 4 °C; the supernatant was discarded and the cells were washed with 1 mL of cold PBS and centrifuged twice at 1100 rpm for 10 min at 4 °C. After this final wash, the supernatant was discarded and the cells were suspended in 500 μL of PBS.
The cells were run in a flow cytometer (Cytomics FC 500MPL), reading at 488 nm (exciting) and 525 nm (emitting) over an argon laser, and counting 10,000 events. Infected cells were determined according to green fluorescence events (parasites). Infected cells exposed to the control drug (amphotericin B) were used as antileishmanial activity controls (positive control). Infected cells incubated in the absence of any compound or drug were used as infection controls (negative control). Non-specific fluorescence was corrected by subtracting fluorescence from unstained cells. All determinations were performed in triplicate, in at least two independent experiments.
(§1) Data for percentages of parasite reduction or inhibition were used to calculate the EC50 using Probit linear regression modeling. […] The selectivity index (SI) was calculated dividing cytotoxic activity by anti-parasitic activity using the following formula: SI = CL50 ÷ CE50.
For orientation: A flow cytometer gives signals particle by particle.

A further series in a line: in vitro. The method, then: The compounds were analyzed for viability of the human pro-monocytic cell line U-937 (ATCC CRL- 1593.2TM) using an MTT (3-(4,5-dimethylthiazol-2-yl)-2,5- diphenyltetrazolium bromide) assay based on a previously described methodology, assessing cytotoxic activity. The resulting compounds were determined by measuring mitochondrial dehydrogenase activity, adding […] of MTT solution (0.5 mg/mL) and incubation at 37 °C for 3 h. Cell viability was defined from the quantity of formazan produced and the intensity of color (absorbance) registered through optical density (O.D.) obtained at 570 nm in a (VarioskanTM Flash Multimode Reader—Thermo Scientific, Waltham, MA, USA) spectrophotometer. As a negative control, isolated cells were cultured (without the compounds) to observe viability. […] We performed two independent tests with each concentration, in triplicate.
Cytotoxicity was determined according to the viability and mortality percentages obtained in each experimental condition (synthesized compounds, amphotericin B, benznidazole, chloroquine, and culture medium). Viability percentages were first calculated using Equation (1). (1) % Viability=O.D exposed cells÷O.D Control cells × 100 Then, cell growth inhibition percentage was calculated as 100 - % viability.
The cell growth inhibition percentages were used to calculate median lethal concentrations (LC50) using Probit analysis.

The subject of series [2] is Plasmodium falciparum 3D7. The series can be described thus: In vitro antiplasmodial activity (LDH, Malstat). It counts as cell-based. As to conditions: for EC50: Plasmodium falciparum. The method, then:
Cultures of asynchronous P. falciparum 3D7 strains were adjusted for 0.5% parasitemia and 1% hematocrit in RPMI medium enriched with 3% lipid-rich bovine serum albumin—Albumax II. […] The plates were incubated for 48 h at 37 °C in an atmosphere of N2 (90%), CO2 (5%) and O2 (5%). After incubation, the parasites were harvested and subjected to three 20-min freeze-thaw cycles. At the same time, 100 µL of Malstat reagent (400 µL of Triton X-100 in 80 mL of deionized water, 4 g of L-lactate, 1.32 g of Tris buffer, and 0.022 g of adenine acetylpyridine dinucleotide in 200 mL of deionized water; pH 9.0), and […] of NBT/PES solution (0.16 g of nitroblue-tetrazolium salt, and 0.08 g of phenazine sulfate in 100 mL of deionized water) were added to each well of an additional 96-well plate. After freezing and thawing cycles, the culture in each of the wells on the first plate was re-suspended by pipetting, and 15 µL was removed from each well and added to the corresponding well on the additional plate (containing the Malstat and NBT/PES reagents). After one hour of incubation in the dark, the color development of the lactate dehidrogenase (LDH) reaction was read on a spectrofluorometer (Varioskan, Thermo, Waltham, MA, USA) at 650 nm. The color intensity in each experimental condition was recorded in fluorescent units (F.U). Non-specific fluorescence was corrected by subtracting F.U. from the blanks. The entire experiment was performed in triplicate in at least two independent experiments. Chloroquine (QC) was used as a positive control and the culture medium was used as a negative control.
The antiplasmodial activity of each compound was evaluated through reduction in parasite growth, calculated according to Equation (2):(2) % parasite inhibition=100−F.U exposed parasites÷F.U non exposed parasites × 100
as §1

The test system of a further series is P. falciparum. Set-up: method as in ref 42 = [42]; 42. Sudi S. Hassan W.R.M. Ali A.H. Basir R. Embi N. Sidek H.M. A derivative of cinnamic acid, methyl-4-hydroxycinnamate modulates inflammatory cytokine levels in malaria-infected mice through inhibiti. Conditions: cited from earlier work.
A further series relates to Leishmania amazonensis. More on the design: method as in Lima et al. (2016) 46. Conditions: ref Lima et al. (2016) 46; cited from earlier work.
The next series has as its system Trypanosoma brucei. Set-up: method as in Steverding et al. (2016) 51. As to conditions: ref Steverding et al. (2016) 51; cited from earlier work.
A further series concerns L. amazonensis. More on the design: method as in ref 41 = [41]; 41. Monzote L. Córdova W.H.P. García M. Piñón A. Setzer W.N. In-vitro and In-vivo Activities of Phenolic Compounds Against Cutaneous Leishmaniasis Rec. Nat. Prod. 2016 10 269 276. As to conditions: cited from earlier work.
Setting [3] is: 3D7, 48 h, read-out: Plasmodium falciparum EC50, 3D7 strain, 48 h, mean ± SD.

In brackets after ≈: the same amount, converted by molar mass. Counter-ions that a name gives are not always drawn. Like-named read-outs stand apart in the source and are kept apart here.

`C[C@@H]1[C@H](O)[C@@H](C)/C=C/C=C/C=C/C=C/C=C/C=C/C=C/[C@H](O[C@@H]2O[C@H](C)[C@@H](O)[C@H](N)[C@@H]2O)C[C@@H]2O[C@](O)(C[C@@H](O)C[C@@H](O)[C@H](O)CC[C@@H](O)C[C@@H](O)CC(=O)O[C@H]1C)C[C@H](O)[C@H]2C(=O)O` [AMB, amphotericin B, reference compound]: in series [1], the concentration giving a half-maximal response (EC50) – broadly, the concentration that produces a half-maximal response – worked out at 0.3 ± 0.07 µg/mL (≈ 0.325 µM). Further, in the series “in vitro”, the CC50 was determined as 38.4 ± 6.3 µg/mL (≈ 41.6 µM).
`CCN(CC)CCCC(C)Nc1ccnc2cc(Cl)ccc12` (stereo not drawn) [CQ, chloroquine diphosphate salt, reference compound]: the EC50 in series [2] (3D7, 48 h, read-out: Plasmodium falciparum EC50) came to 3.35 ± 0.39 µg/mL.
As for `COC(=O)/C=C/c1ccc(O)cc1` [Compound 1, methyl p-coumarate], the half-maximal effective concentration (EC50) turned out to be 8.28 ± 0.14 µg/mL (≈ 46.5 µM) in series [1] and 64.6 ± 2.89 µg/mL (≈ 362 µM) in series [2] (3D7 strain, 48 h, mean ± SD, read-out: Plasmodium falciparum EC50). This molecule showed a CC50 in the series “in vitro” of 6.26 ± 0.03 µg/mL (≈ 35.1 µM). The “activity against P. falciparum” value with P. falciparum is “presents activity”.
As to `CCOC(=O)/C=C/c1ccc(O)cc1` [Compound 2, ethyl p-coumarate], the EC50 in series [1] came out at 4.91 ± 0.64 µg/mL (≈ 25.5 µM); in series [2] (setting [3]), 110 ± 30.8 µg/mL (≈ 574 µM). Besides, the CC50 in the series “in vitro” was determined as 1.06 ± 1.08 µg/mL (≈ 5.51 µM).
On the same counts, the results for `CCCOC(=O)/C=C/c1ccc(O)cc1` [Compound 3, propyl p-coumarate] are 6.3 ± 1.14 µg/mL (≈ 30.5 µM), 139 ± 4.07 µg/mL (≈ 674 µM) and 11.9 ± 0.8 µg/mL (≈ 57.7 µM).
In the same order, the values of `CC(C)OC(=O)/C=C/c1ccc(O)cc1` [Compound 4, isopropyl p-coumarate] are 28.33 ± 0.27 µg/mL (≈ 137 µM), 106 ± 9.97 µg/mL (≈ 514 µM) and 96.2 ± 18.9 µg/mL (≈ 467 µM).
On the same counts, the results for `COCCOC(=O)/C=C/c1ccc(O)cc1` [Compound 5, methoxy-ethyl p-coumarate] are 87 ± 18.1 µg/mL (≈ 391 µM), 98.7 ± 17.7 µg/mL (≈ 444 µM) and 127 ± 16.5 µg/mL (≈ 570 µM).
For the molecule `CCCCOC(=O)/C=C/c1ccc(O)cc1` [Compound 6, butyl p-coumarate], the results for the EC50 in series [1] and in series [2] (setting [3]) were 323 ± 50 µg/mL (≈ 1470 µM) and 199 ± 7.9 µg/mL (≈ 903 µM), respectively. In “in vitro”, this molecule had a CC50 of 30.9 ± 6.32 µg/mL (≈ 140 µM).
For the molecule `CCCCCOC(=O)/C=C/c1ccc(O)cc1` [Compound 7, pentyl p-coumarate], the half-maximal effective concentration (EC50) in series [1] is 32 ± 5.05 µg/mL (≈ 137 µM); in series [2] (setting [3]), 156 ± 8.2 µg/mL (≈ 667 µM). In addition, the “Plasmodium falciparum EC50” value in series [2] (3D7 strain, 48 h, mean ± SD) is 95.48 ± 1.84 µg/mL. The molecule also showed a CC50 in the series “in vitro” of 16.1 ± 3.81 µg/mL (≈ 68.7 µM).
As for `CC(C)CCOC(=O)/C=C/c1ccc(O)cc1` [Compound 8, isopentyl p-coumarate], the EC50 in series [1] was 6.02 ± 0.22 µg/mL (≈ 25.7 µM); in series [2] (setting [3]) it was 95.5 ± 1.84 µg/mL (≈ 408 µM). In series [2] (3D7 strain, 48 h, mean ± SD), the “Plasmodium falciparum EC50” value was found to be 156.37 ± 8.2 µg/mL. In the series “in vitro”, this molecule had a CC50 of 19.6 ± 1.76 µg/mL (≈ 83.6 µM).
`CCCCCCOC(=O)/C=C/c1ccc(O)cc1` [Compound 9, hexyl p-coumarate]: the EC50 in series [1] came out at 4.14 ± 0.55 µg/mL (≈ 16.7 µM); in series [2] (setting [3]), 206 ± 46.4 µg/mL (≈ 831 µM). In “in vitro”, this molecule had a CC50 of 11.2 ± 0.86 µg/mL (≈ 45.3 µM).
On the same counts, the results for `CCCCCCCCCCCCOC(=O)/C=C/c1ccc(O)cc1` [Compound 10, dodecyl p-coumarate] are 16.3 ± 0.49 µg/mL (≈ 49.1 µM), 81.2 ± 8.54 µg/mL (≈ 244 µM) and 15.4 ± 1.84 µg/mL (≈ 46.4 µM).
In the same order, the values of `Cc1ccc(COC(=O)/C=C/c2ccc(O)cc2)cc1` [Compound 11, 4-methylbenzyl p-coumarate] are 5.69 ± 0.3 µg/mL (≈ 21.2 µM), 84 ± 15.3 µg/mL (≈ 313 µM) and 20.8 ± 3.47 µg/mL (≈ 77.6 µM).
On the same counts, the results for `CC(C)c1ccc(COC(=O)/C=C/c2ccc(O)cc2)cc1` [Compound 12, 4-isopropylbenzyl p-coumarate] are 11.2 ± 0.2 µg/mL (≈ 37.8 µM), 93.7 ± 14.2 µg/mL (≈ 316 µM) and 35.2 ± 13.9 µg/mL (≈ 119 µM).
Take `CCOC(=O)/C=C/c1ccc(O)c(O)c1` [ethyl caffeate]: the “activity against Leishmania amazonensis” value with Leishmania amazonensis was “no activity”.
As to `CC(C)CCOC(=O)/C=C/c1ccc(O)c(O)c1` [isopentyl caffeate], the “antiparasitic activity against Trypanosoma brucei” value with Trypanosoma brucei is listed as “antiparasitic activity”.
As for `O=C(O)C=Cc1ccc(O)cc1` [p-Coumaric acid], the “antiparasitic activity against L. amazonensis” value in the series with L. amazonensis is given as “presents antiparasitic activity”.
